In US20090258942A1 (priority 2008, published 2009):

How the values were obtained:
[1] = tested on: MCF-7 breast cancer xenografts; assay: MCF-7 kidney capsule xenografts; conditions: 28 days; E2 0.5 mg/h, Calycosin 2.5 mg/h in saline; FIG. 5
Description: MCF-7 xenografts were introduced into nude mouse kidneys. Mice were randomized to three treatment groups. […] Each treatment group was treated for 28 days, after which mice were euthanized and the kidneys containing the xenografts were excised, photographed and weighed.

[2] = target: ERβ (Homo sapiens, UniProt Q92731); conditions: in the presence of ERβ
Description: (§1) Light emission at 560 nm is conveniently quantified in optical density units (O.D.560 nm).

[3] = tested on: TNF-RE tkLuc; assay: TNF-RE tkLuc reporter, effect of antiestrogens; format: cell-based; conditions: in contrast to E2
Description: as §1

[4] = target: estrogen receptor beta (ERβ) (Homo sapiens, UniProt Q92731); conditions: added to (a), (b), (c) or (d); FIGS. 4a-4d
[5] = tested on: breast cancer; conditions: among 5129 women in the treatment group; median follow-up 40 months; cited from earlier work
[6] = tested on: estrogen receptor-positive breast cancer; conditions: five years of therapy; cited from earlier work
[7] = tested on: primary invasive breast cancer; conditions: women at high risk for breast cancer; cited from earlier work

Chain of estrogen receptor beta (ERβ) (Q92731 whole entry): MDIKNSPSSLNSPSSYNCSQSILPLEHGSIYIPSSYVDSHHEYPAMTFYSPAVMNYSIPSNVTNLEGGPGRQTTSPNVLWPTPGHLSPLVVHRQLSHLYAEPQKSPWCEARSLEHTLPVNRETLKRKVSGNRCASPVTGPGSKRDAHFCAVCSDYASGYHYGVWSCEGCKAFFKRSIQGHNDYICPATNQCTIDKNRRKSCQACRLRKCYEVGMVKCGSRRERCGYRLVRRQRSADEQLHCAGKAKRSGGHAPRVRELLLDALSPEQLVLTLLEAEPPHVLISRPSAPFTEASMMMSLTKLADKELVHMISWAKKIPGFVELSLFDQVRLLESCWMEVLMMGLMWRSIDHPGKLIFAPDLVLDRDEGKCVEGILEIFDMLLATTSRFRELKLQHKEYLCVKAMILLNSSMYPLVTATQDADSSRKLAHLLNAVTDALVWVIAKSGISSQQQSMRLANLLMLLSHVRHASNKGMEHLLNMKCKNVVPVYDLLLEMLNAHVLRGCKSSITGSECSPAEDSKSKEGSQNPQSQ
Chain of ERβ (Q92731 whole entry): as above

**Q.** For `COc1ccc(-c2coc3cc(O)ccc3c2=O)cc1O` [Calycosin, 3-(4-methoxy-3-hydroxyphenyl)-7-hydroxycoumarin], which “growth of MCF-7 kidney capsule xenografts as compared to control” value [1] is on record?
**A.** The value was “inhibits the growth of MCF-7 breast cancer xenografts”.

**Q.** With `C[C@]12CC[C@@H]3c4ccc(O)cc4CC[C@H]3[C@@H]1CC[C@@H]2O` [E2, estradiol] as the molecule, how does the “repression of TNF-α activation of TNF-RE tkLuc” value [2] read?
**A.** Its value is 60-80%.

**Q.** Which “activation of TNF-RE tkLuc” value [3] does the source give for `C[C@]12CC[C@@H]3c4ccc(O)cc4C[C@@H](CCCCCCCCC[S+]([O-])CCCC(F)(F)C(F)(F)F)[C@H]3[C@@H]1CC[C@@H]2O` (stereo partly shown) [ICI 182780] here?
**A.** Its value is 2 fold.

**Q.** For `O=C(c1ccc(OCCN2CCCCC2)cc1)c1c(-c2ccc(O)cc2)sc2cc(O)ccc12` [raloxifene], which “effect of addition on ERE activation by compounds (a)-(d) through ERβ” value [4] is on record?
**A.** The value was “reduced this activation”.

**Q.** And the “cases of breast cancer” value [5]?
**A.** The value was 13 cases.

**Q.** And the “activation of TNF-RE tkLuc” value [3]?
**A.** Its value is 2 fold.

**Q.** With `CC/C(=C(\c1ccccc1)c1ccc(OCCN(C)C)cc1)c1ccccc1` [tamoxifen] as the molecule, how does the “reduction of mortality from breast cancer” value [6] read?
**A.** Its value is 22%.

**Q.** And the “reduction of the risk of recurrences” value [6]?
**A.** The value was 42%.

**Q.** And the “reduction of the risk of primary invasive breast cancer” value [7]?
**A.** Its value is 49%.

**Q.** And the “activation of TNF-RE tkLuc” value [3]?
**A.** Its value is 2 fold.
